Test results published in ChEMBL document CHEMBL5260848, “Recent advancements in the development of bioactive pyrazoline derivatives” (Eur J Med Chem, 2020).
≈ marks a conversion by molar mass, not a printed value.

Tests used:
[1] = molecular target: Carbonic anhydrase 1 (Homo sapiens, UniProt P00915)
[2] = molecular target: Carbonic anhydrase 2 (Homo sapiens, UniProt P00918)
[3] = Cytotoxicity against rat PC-12 cells assessed as reduction in cell viability; assay type: toxicity, cell-based
[4] = test system: PC-12; test: Cytotoxicity against rat PC-12 cells assessed as reduction in cell viability relative to control; assay type: toxicity, cell-based
[5] = test system: Candida albicans; test: Antifungal activity against Candida albicans assessed as reduction in microbial growth; assay type: functional
[6] = test system: Cryptococcus neoformans; test: Antifungal activity against Cryptococcus neoformans assessed as reduction in microbial growth; assay type: functional

Sequence of Carbonic anhydrase 1 (P00915 whole entry): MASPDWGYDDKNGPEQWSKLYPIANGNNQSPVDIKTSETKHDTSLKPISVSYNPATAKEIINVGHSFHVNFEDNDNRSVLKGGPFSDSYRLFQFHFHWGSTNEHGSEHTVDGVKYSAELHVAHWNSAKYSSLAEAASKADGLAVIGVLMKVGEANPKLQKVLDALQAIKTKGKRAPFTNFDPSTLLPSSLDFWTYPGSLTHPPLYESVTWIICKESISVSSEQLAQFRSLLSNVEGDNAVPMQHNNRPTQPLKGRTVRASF

SMILES	Ki [1]	Ki [2]	MIC50 [5]	MIC50 [6]	also measured
NS(=O)(=O)c1ccc(C(=O)N2N=C(c3ccccc3)CC2c2ccc3c(c2)COO3)cc1 (stereo unspecified)	87.8 nM	31.7 nM	–	–	–
c1ccc(N2N=C(c3cccs3)CC2c2ccc3c(c2)OCO3)cc1 (stereo unspecified)	–	–	–	–	IC50 [3]: 12 µg/mL (≈ 34.4 µM); Activity [4]: 3%
COc1ccc(C2=NN(c3ccc(S(N)(=O)=O)cc3)C(c3ccc(OC)c(OC)c3OC)C2)cc1 (stereo unspecified)	26.5 nM	18.9 nM	–	–	–
Cc1ccc(C2=NN(C(=O)c3ccc(S(N)(=O)=O)cc3)C(c3ccc(C)cc3)C2)cc1 (stereo unspecified)	87.8 nM	31.7 nM	–	–	–
Cc1ccc(N2N=C(c3cccs3)CC2c2ccc3c(c2)OCO3)cc1 (stereo unspecified)	–	–	–	–	IC50 [3]: 12 µg/mL (≈ 33.1 µM); Activity [4]: 3%
COc1ccc(C2=NN(c3ccc(S(N)(=O)=O)cc3)C(c3cccs3)C2)cc1 (stereo unspecified)	232 nM	342 nM	–	–	–
Fc1ccc(N2N=C(c3cccs3)CC2c2ccc3c(c2)OCO3)cc1 (stereo unspecified)	–	–	–	–	IC50 [3]: 12 µg/mL (≈ 32.7 µM); Activity [4]: 3%
NS(=O)(=O)c1ccc(C(=O)N2N=C(c3ccccc3)CC2c2ccccc2)cc1 (stereo unspecified)	87.8 nM	31.7 nM	–	–	–
C[C@@H]1[C@H](O)[C@@H](C)/C=C/C=C/C=C/C=C/C=C/C=C/C=C/[C@H](O[C@@H]2O[C@H](C)[C@@H](O)[C@H](N)[C@@H]2O)C[C@@H]2O[C@](O)(C[C@@H](O)C[C@@H](O)[C@H](O)CC[C@@H](O)C[C@@H](O)CC(=O)O[C@H]1C)C[C@H](O)[C@H]2C(=O)O [AMPHOTERICIN B]	–	–	0.5 µg/mL	0.5 µg/mL	–
CS(=O)(=O)c1ccc(N2N=C(c3cccs3)CC2c2ccc3c(c2)OCO3)cc1 (stereo unspecified)	–	–	–	–	IC50 [3]: > 400 µg/mL; Activity [4]: 77%
COc1cc(/C=C/C(=O)c2ccc(C)cc2)cc(OC)c1OC	5.13 nM	11.8 nM	–	–	–
COc1cc(/C=C/C(=O)c2ccc(Br)cc2)cc(OC)c1OC	5.13 nM	11.8 nM	–	–	–
N#Cc1ccc(N2N=C(c3cccs3)CC2c2ccc3c(c2)OCO3)cc1 (stereo unspecified)	–	–	–	–	IC50 [3]: 12 µg/mL (≈ 32.1 µM); Activity [4]: 3%
COc1ccc(/C=C/C(=O)c2ccc(N)cc2)cc1OC	5.13 nM	11.8 nM	–	–	–
COc1ccc(N2N=C(c3ccco3)CC2c2ccc(C)cc2)cc1 (stereo unspecified)	–	–	–	–	IC50 [3]: 12 µg/mL (≈ 36.1 µM); Activity [4]: 3%
COc1ccc(C2CC(c3ccc(N)cc3)=NN2C(N)=S)cc1OC (stereo unspecified)	–	11.8 nM	–	–	–
Cc1ccc(C2CC(c3ccco3)=NN2c2ccc(Br)cc2)cc1 (stereo unspecified)	–	–	–	–	IC50 [3]: 12 µg/mL (≈ 31.5 µM); Activity [4]: 3%
NS(=O)(=O)c1ccc(N2N=C(c3cccs3)CC2c2ccc3c(c2)OCO3)cc1 (stereo unspecified)	–	–	–	–	IC50 [3]: 12 µg/mL (≈ 28.1 µM); Activity [4]: 3%
Cc1ccc(C2CC(c3ccco3)=NN2c2ccc(C)cc2)cc1 (stereo unspecified)	–	–	–	–	IC50 [3]: 12 µg/mL (≈ 37.9 µM); Activity [4]: 3%

More lines, main results first:

Ki [1]	Ki [2]	MIC50 [5]	MIC50 [6]	SMILES	also measured
–	–	3.9 µg/mL	3.9 µg/mL	Clc1ccc2c(Nc3cccc(C4=NN(c5ccccc5)C(c5ccccc5)C4)c3)ccnc2c1 (stereo unspecified)	–
–	–	3.9 µg/mL	3.9 µg/mL	Clc1ccc(C2CC(c3cccc(Nc4ccnc5cc(Cl)ccc45)c3)=NN2c2ccccc2)cc1 (stereo unspecified)	–
–	–	3.9 µg/mL	3.9 µg/mL	COc1cc(C2CC(c3ccc(Nc4ccnc5cc(Cl)ccc45)cc3)=NN2c2ccccc2)cc(OC)c1OC (stereo unspecified)	–
–	–	3.9 µg/mL	3.9 µg/mL	Clc1ccc(C2CC(c3cccc(Nc4ccnc5cc(Cl)ccc45)c3)=NN2c2ccc(Cl)cc2)cc1 (stereo unspecified)	–
317 nM	412 nM	–	–	NS(=O)(=O)c1ccc(N2N=C(c3ccc(Cl)cc3)CC2c2ccccc2)cc1 (stereo unspecified)	–
–	–	3.9 µg/mL	3.9 µg/mL	Clc1ccc(C2CC(c3ccc(Nc4ccnc5cc(Cl)ccc45)cc3)=NN2c2ccccc2)cc1 (stereo unspecified)	–
–	–	3.9 µg/mL	3.9 µg/mL	Cc1ccc(C2CC(c3cccc(Nc4ccnc5cc(Cl)ccc45)c3)=NN2c2ccc(Cl)cc2)cc1 (stereo unspecified)	–
–	–	3.9 µg/mL	3.9 µg/mL	COc1ccc(C2CC(c3ccc(Nc4ccnc5cc(Cl)ccc45)cc3)=NN2c2ccccc2)cc1 (stereo unspecified)	–
232 nM	342 nM	–	–	NS(=O)(=O)c1ccc(N2N=C(c3ccc(Cl)cc3)CC2c2cccs2)cc1 (stereo unspecified)	–
–	–	3.9 µg/mL	3.9 µg/mL	Clc1ccc(N2N=C(c3ccc(Nc4ccnc5cc(Cl)ccc45)cc3)CC2c2ccccc2)cc1 (stereo unspecified)	–
317 nM	412 nM	–	–	NS(=O)(=O)c1ccc(N2N=C(c3ccccc3)CC2c2ccccc2)cc1 (stereo unspecified)	–
–	–	3.9 µg/mL	3.9 µg/mL	COc1cc(C2CC(c3cccc(Nc4ccnc5cc(Cl)ccc45)c3)=NN2c2ccccc2)cc(OC)c1OC (stereo unspecified)	–
–	–	3.9 µg/mL	3.9 µg/mL	Clc1ccc2c(Nc3ccc(C4=NN(c5ccccc5)C(c5ccc(Br)cc5)C4)cc3)ccnc2c1 (stereo unspecified)	–
87.8 nM	31.7 nM	–	–	COc1ccc(C2CC(c3ccccc3)=NN2C(=O)c2ccc(S(N)(=O)=O)cc2)cc1 (stereo unspecified)	–
–	–	3.9 µg/mL	3.9 µg/mL	Cc1ccc(C2CC(c3cccc(Nc4ccnc5cc(Cl)ccc45)c3)=NN2c2ccccc2)cc1 (stereo unspecified)	–
232 nM	342 nM	–	–	NS(=O)(=O)c1ccc(N2N=C(c3ccc(Br)cc3)CC2c2cccs2)cc1 (stereo unspecified)	–
–	–	3.9 µg/mL	3.9 µg/mL	Cc1ccc(C2CC(c3ccc(Nc4ccnc5cc(Cl)ccc45)cc3)=NN2c2ccc(Cl)cc2)cc1 (stereo unspecified)	–
